Laboratory results taken from ChEMBL document CHEMBL4184320, “Optimization of Selective Mitogen-Activated Protein Kinase Interacting Kinases 1 and 2 Inhibitors for the Treatment of Blast Crisis Leukemia” (J Med Chem, 2018).
≈ marks a conversion by molar mass, not a printed value.

How the values were obtained:
[1] = molecular target: MAP kinase-interacting serine/threonine-protein kinase 2 (Homo sapiens, UniProt Q9HBH9)
Description: Inhibition of GST-tagged MNK2 (72 to 385 residues) (unknown origin) expressed in Escherichia coli BL21(DE3) using JH3 peptide as substrate preincubated for 10 mins followed by substrate and ATP addition measured after 60 mins

[2] = Thermodynamic solubility of the compound at pH 4 to 7.4 pION buffer after 18 hrs by UV spectrophotometric analysis; format: physicochemical; details: read-out: Therm_solubility
[3] = molecular target: MAP kinase-interacting serine/threonine-protein kinase 1/2 (Homo sapiens, UniProt Q9HBH9+Q9BUB5); assay: Inhibition of MNK1/2 in human HeLa cells assessed as decrease in eIF4E phosphorylation at Ser209 after 2 hrs by AlphaScreen assay; format: cell-based
[4] = molecular target: MAP kinase-interacting serine/threonine-protein kinase 1 (Homo sapiens, UniProt Q9BUB5)
Description: Inhibition of GST-tagged MNK1 (37 to 341 residues) (unknown origin) expressed in Escherichia coli BL21(DE3) using JH3 peptide as substrate preincubated for 10 mins followed by substrate and ATP addition measured after 60 mins

[5] = Permeability of the compound by PAMPA; format: ADME; details: read-out: permeability
[6] = Octanol-phosphate buffer partition coefficient, logD of compound at pH 7.4 by HPLC-UV analysis; format: physicochemical
in vitro [7] = details: mouse, liver microsomes
Description: Half life in mouse liver microsomes at 1 uM in presence of NADPH by LC-MS/MS analysis

[8] = Efflux ratio of apparent permeability in human Caco2 cells by LC-MS/MS analysis; format: ADME, cell-based; details: Caco-2
[9] = Apparent permeability of the compound across apical side to basolateral side in human Caco2 cells by LC-MS/MS analysis; format: ADME, cell-based; details: Caco-2
in vitro [10] = details: human, liver microsomes
Description: Half life in human liver microsomes at 1 uM in presence of NADPH by LC-MS/MS analysis

Cytochrome P450 3A4 = Cytochrome P450 3A4 (Homo sapiens, UniProt P08684)
Description: Inhibition of CYP3A4 in human liver microsomes using midazolam as substrate preincubated for 5 mins followed by NADPH addition measured after 5 mins by LC-MS/MS analysis

Cytochrome P450 2D6 = Cytochrome P450 2D6 (Homo sapiens, UniProt P10635); assay: Inhibition of CYP2D6 in human liver microsomes using dextromethorphan as substrate preincubated for 5 mins followed by NADPH addition by LC-MS/MS analysis; format: ADME
Cytochrome P450 2D6, sequence (P10635 whole entry): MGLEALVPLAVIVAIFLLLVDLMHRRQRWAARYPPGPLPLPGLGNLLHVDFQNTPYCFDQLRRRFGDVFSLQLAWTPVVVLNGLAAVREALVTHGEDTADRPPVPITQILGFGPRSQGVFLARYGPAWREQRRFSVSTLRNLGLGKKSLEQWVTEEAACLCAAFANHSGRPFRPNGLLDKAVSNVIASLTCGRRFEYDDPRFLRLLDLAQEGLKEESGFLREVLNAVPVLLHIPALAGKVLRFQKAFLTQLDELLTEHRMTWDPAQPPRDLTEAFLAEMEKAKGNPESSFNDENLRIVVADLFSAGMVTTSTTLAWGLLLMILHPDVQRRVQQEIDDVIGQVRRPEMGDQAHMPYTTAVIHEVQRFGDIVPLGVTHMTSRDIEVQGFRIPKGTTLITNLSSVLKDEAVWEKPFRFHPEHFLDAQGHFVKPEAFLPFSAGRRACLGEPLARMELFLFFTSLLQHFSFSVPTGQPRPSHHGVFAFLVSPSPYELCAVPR

MAP kinase-interacting serine/threonine-protein kinase 2, sequence (Q9HBH9 whole entry): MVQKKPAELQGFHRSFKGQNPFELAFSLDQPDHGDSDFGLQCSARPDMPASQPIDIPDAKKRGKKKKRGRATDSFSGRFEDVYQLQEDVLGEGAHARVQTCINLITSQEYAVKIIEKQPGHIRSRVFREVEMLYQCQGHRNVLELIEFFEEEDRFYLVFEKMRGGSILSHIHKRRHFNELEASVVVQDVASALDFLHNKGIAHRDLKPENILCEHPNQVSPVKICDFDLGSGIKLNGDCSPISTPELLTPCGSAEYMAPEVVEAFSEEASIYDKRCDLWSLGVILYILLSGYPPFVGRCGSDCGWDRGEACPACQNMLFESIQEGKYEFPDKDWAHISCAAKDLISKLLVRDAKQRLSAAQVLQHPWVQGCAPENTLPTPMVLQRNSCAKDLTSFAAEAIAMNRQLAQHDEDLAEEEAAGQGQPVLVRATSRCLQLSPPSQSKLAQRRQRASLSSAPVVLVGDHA
MAP kinase-interacting serine/threonine-protein kinase 1, sequence (Q9BUB5 whole entry): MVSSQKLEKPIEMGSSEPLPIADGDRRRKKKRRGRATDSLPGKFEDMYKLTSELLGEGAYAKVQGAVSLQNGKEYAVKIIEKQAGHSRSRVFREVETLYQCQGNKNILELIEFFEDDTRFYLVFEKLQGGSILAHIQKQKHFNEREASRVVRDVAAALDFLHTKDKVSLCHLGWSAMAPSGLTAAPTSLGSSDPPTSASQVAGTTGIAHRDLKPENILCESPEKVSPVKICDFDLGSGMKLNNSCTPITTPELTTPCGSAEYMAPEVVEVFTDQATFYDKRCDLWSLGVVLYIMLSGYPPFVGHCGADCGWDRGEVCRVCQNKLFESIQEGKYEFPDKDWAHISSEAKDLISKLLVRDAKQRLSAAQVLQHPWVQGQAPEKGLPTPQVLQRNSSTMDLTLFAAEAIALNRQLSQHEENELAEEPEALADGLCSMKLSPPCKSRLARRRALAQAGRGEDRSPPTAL
Cytochrome P450 3A4, sequence (P08684 whole entry): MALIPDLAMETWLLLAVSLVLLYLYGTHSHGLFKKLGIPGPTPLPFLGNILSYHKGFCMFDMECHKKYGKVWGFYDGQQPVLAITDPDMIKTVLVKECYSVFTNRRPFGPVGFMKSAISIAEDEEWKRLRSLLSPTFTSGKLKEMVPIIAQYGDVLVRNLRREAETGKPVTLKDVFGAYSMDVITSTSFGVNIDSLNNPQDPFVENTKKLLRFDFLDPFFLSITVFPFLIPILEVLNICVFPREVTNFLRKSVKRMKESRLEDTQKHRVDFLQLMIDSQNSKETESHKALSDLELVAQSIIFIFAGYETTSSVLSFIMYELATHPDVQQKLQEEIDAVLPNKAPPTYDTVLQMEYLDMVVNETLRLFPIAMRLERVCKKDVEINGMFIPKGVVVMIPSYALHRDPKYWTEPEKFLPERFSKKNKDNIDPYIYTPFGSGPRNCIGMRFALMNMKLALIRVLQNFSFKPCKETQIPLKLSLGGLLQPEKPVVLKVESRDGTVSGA

| IC50 [1] [nM] | solubility thermodynamic at 18 h [2] [µg/mL] | IC50 [3] [nM] | IC50 [4] [nM] | Papp [5] [×10⁻⁶ cm/s] | logD [6] | half-life at 1 µM (in vitro [7]) [min] | efflux ratio [8] | Papp A→B [9] [×10⁻⁶ cm/s] | half-life at 1 µM (in vitro [10]) [min] | IC50 (Cytochrome P450 3A4) [nM] | IC50 (Cytochrome P450 2D6) [nM] | SMILES |
| --- | --- | --- | --- | --- | --- | --- | --- | --- | --- | --- | --- | --- |
| 113 | 11.5 (≈ 28.7 µM) | 130 | 125 | 50.2 | 2.21 | – | – | – | – | – | – | O=C(c1ccc(-c2cn3c(-c4ccc(O)cc4)cnc3cn2)cc1)N1CCOCC1 |
| 160 | 144 (≈ 326 µM) | > 2500 | 224 | 2.82 | 1.68 | – | – | – | – | – | – | CC(=O)N1CCN(C(=O)c2ccc(-c3cn4c(-c5ccc(O)cc5)cnc4cn3)cc2)CC1 |
| 515 | – | > 2500 | 789 | – | – | – | – | – | – | – | – | CC(=O)Nc1cn2c(-c3ccc(O)cc3)cnc2cn1 |
| 336 | 66.9 (≈ 150 µM) | 1630 | 369 | 76.2 | 2.55 | – | – | – | – | – | – | CN1CCN(C(=O)c2ccc(-c3cn4c(-c5ccc(C(F)F)cc5)cnc4cn3)cc2)CC1 |
| 1430 | – | 1920 | 2680 | – | – | – | – | – | – | – | – | CN1CCN(C(=O)c2ccc(-c3cn4c(-c5ccccc5)cnc4cn3)cc2)CC1 |
| 140 | 114 (≈ 276 µM) | 189 | 284 | 34.7 | 2.25 | – | – | – | – | – | – | CN1CCN(C(=O)c2ccc(-c3cn4c(-c5ccc(O)cc5)cnc4cn3)cc2)CC1 |
| 389 | 90.4 (≈ 194 µM) | 1990 | 574 | 87.4 | 2.95 | – | – | – | – | – | – | CN1CCN(C(=O)c2ccc(-c3cn4c(-c5ccc(C(F)(F)F)cc5)cnc4cn3)cc2)CC1 |
| 415 | – | 819 | 528 | – | – | – | – | – | – | – | – | Oc1ccc(-c2cnc3cnc(-c4ccccc4)cn23)cc1 |
| 1080 | – | – | 3350 | – | – | – | – | – | – | – | – | O=C(Nc1cn2c(-c3ccc(O)cc3)cnc2cn1)c1ccccc1 |
| 5170 | – | – | 9500 | – | – | – | – | – | – | – | – | CN1CCN(C(=O)c2ccc(-c3cn4c(-c5ccccc5O)cnc4cn3)cc2)CC1 |
| 26 | 115 (≈ 282 µM) | 220 | 16 | 45.8 | 2 | 42 | 29.9 | 1.13 | > 60 | 5600 | – | N#Cc1ccc(-c2cnc3ccc(-c4ccc(C(=O)N5CCNCC5)cc4)nn23)cc1 |
| 742 | 116 (≈ 281 µM) | 1330 | 1300 | 33.2 | 2.31 | – | – | – | – | – | – | CN1CCN(C(=O)c2ccc(-c3cn4c(-c5cccc(O)c5)cnc4cn3)cc2)CC1 |
| 355 | > 22 | > 2500 | 700 | 0.1 | -1.37 | – | – | – | – | – | – | CN1CCN(C(=O)c2ccc(-c3cn4c(-c5ccc(C(=O)O)cc5)cnc4cn3)cc2)CC1 |
| 187 | 126 (≈ 286 µM) | > 2500 | 294 | 1.78 | 0.98 | – | – | – | – | – | – | CN1CCN(C(=O)c2ccc(-c3cn4c(-c5ccc(C(N)=O)cc5)cnc4cn3)cc2)CC1 |
| 217 | 118 (≈ 273 µM) | 759 | 331 | 71.3 | 2.96 | – | – | – | – | – | – | CN1CCN(C(=O)c2ccc(-c3cn4c(-c5ccc(Cl)cc5)cnc4cn3)cc2)CC1 |
| 31 | – | > 2500 | 60 | – | – | – | – | – | – | – | – | CN1CCN(C(=O)c2ccc(-c3cn4c(-c5ccc(C(=O)NO)cc5)cnc4cn3)cc2)CC1 |
| 193 | – | 1080 | 310 | 22.7 | 2.03 | 46 | – | – | 60 | > 20000 | > 20000 | NC(=O)c1ccc(-c2cn3c(-c4ccc(O)cc4)cnc3cn2)cc1 |
| 410 | – | 1210 | 600 | – | – | – | – | – | – | – | – | Cc1ccc(-c2cnc3cnc(-c4ccc(C(=O)N5CCN(C)CC5)cc4)cn23)cc1 |
